Experimental data: patent US20130053323A1, “METHODS AND USE RELATED TO HUMANIN AND HUMANIN-LIKE PEPTIDES” (priority 2009, published 2013)

How the values were obtained:
growth plate = tested on: growth plate
Excerpt: The proteasome inhibitors (PIs), including bortezomib (Velcade™, PS-341), belong to another novel and promising group of CT that has past phase I clinical trials (Blaney, Bernstein et al. 2004) and are now under phase II clinical trials in pediatric cancers. However, secondary effects on normal bystander tissues of primary life saving modalities are so far unknown.

[1] = tested on: fetal rat metatarsal bones; test: Longitudinal growth of cultured fetal rat metatarsal bones; assay type: cell-based
Description: (§1) The three middle metatarsal bone rudiments were dissected out from the paws of 20-day-old embryos (E20) (De Luca, Barnes et al. 2001). After dissection, bones were transferred to 24-well plates, one bone per well and cultured in 0.5 ml phenol-red MEM medium supplemented with 0.2% endotoxin-free fraction BSA, […] β-glycerophosphate, 0.05 mg/ml ascorbic acid and 100 μg/ml penicillin/streptomycin at 37° C. under 5% CO2 in humidified atmosphere. Medium was changed every 2-3 days. Images were captured at days 0, 2, 5, 7, 9 and 12 of culture, using a Hamamatsu C4742-95 digital camera mounted on a Nikon SMZ-U microscope. The Image-Pro plus™ (Media Cybernetics, USA) software was used to measure longitudinal growth. Metatarsal bone growth is expressed as a percentage of the length at the day of dissection (regarded as day 0). Treatment with CT (bortezomib), dexamethasone and/or HNG (S14G) was started 2-4 hours after dissection. All isolated bones were pooled and then randomly divided into the different treatment groups (4 to 6 bones per group). Each experiment was repeated at least 3 times.
The data shown in FIG. 2A indicates novel growth promoting/protective effects of humanin analog HNG (S14G) on longitudinal bone growth in cultured fetal rat metatarsal bones. […] Briefly, fetal rat metatarsal bones were pre-treated with different concentrations (mentioned in the figure) of HNG (S14G), 30 min prior to addition of Dexa. […] (n=4-6 bones/group)
CT (bortezomib) is a cytotoxic drug known to cause critical alterations in cells/tissues and disturb the cellular homeostasis. To test the effect of CT (bortezomib) on chondocytes and longitudinal bone growth, the established in vitro model of fetal rat metatarsal bones was used. These bones were collected as described in material and methods, cultured and treated with different concentrations of CT (bortezomib) under sterile conditions for up to 12 days. […] Apoptosis was analyzed in whole growth plate sections of 12-day cultured rat metatarsal bones (perichondrium excluded) by applying the TUNEL technique to detect DNA fragmentation.
In an attempt to block and prevent the negative effects on growth after CT (bortezomib)-treatment, recently discovered humanin analog HNG (S14G) was tested in vitro in fetal rat metatarsal bones.

[2] = tested on: chondrocytes of fetal rat metatarsal bones; test: TUNEL apoptosis in growth plate sections of cultured rat metatarsal bones; assay type: cell-based; conditions: bortezomib 1-1000 nM, 12-day culture, p<0.001 vs control
Description: as §1
CT (bortezomib) is a cytotoxic drug known to cause critical alterations in cells/tissues and disturb the cellular homeostasis. […] Apoptosis was analyzed in whole growth plate sections of 12-day cultured rat metatarsal bones (perichondrium excluded) by applying the TUNEL technique to detect DNA fragmentation.

C57B and NMRI mice = test: Bone length (X-ray) and body weight in normal C57B and NMRI mice; assay type: in vivo; conditions: for bone length (femur, X-ray): bortezomib 1 mg/kg i.p., 1 cycle
Description: (§2) Normal 5-week old male C57B and NMRI (B&K Universal, Sollentuna, Sweden) mice were housed one per cage in our animal care facility under a 12-h light, 12-h dark schedule with water ad libitum. After an adaptation period, each strain of mice were divided into two groups according to their body weight and were weight-matched into pairs to either receive 1 cycle intra peritoneal (i.p) injections of CT (bortezomib; Millennium Pharmaceuticals, USA, 1 mg/kg of body weight; 2 injections/week, 2 weeks treatment) or saline (vehicle). Body weight, food and general physical status was recorded daily during the first 20 days, and each vehicle-treated mouse was pair-fed to corresponding weight-matched CT (bortezomib)-treated mice. […] X-ray analyses where performed approximately every second week from start of treatment (represents time-point zero) to time of killing (day 56).
FIG. 5 illustrates a schematic representation of the experimental design for the in vivo studies in C57B and NMRI mice. Both strains of mice were housed one per cage with water ad libitum. At start of treatment, mice were randomized into two groups based on their body weight and were weight-matched into pairs to either receive 1 cycle of intraperitoneal (i.p.) injected CT (bortezomib, 1 mg/kg) or vehicle at the indicated time-points; day 1, 4, 8 and 11. Each vehicle treated mouse was pair-fed to a corresponding weight-matched CT (bortezomib) treated mouse. Mice were killed (t) on day 13 (48 hrs post treatment) or on day 56 (45 days post treatment). X-ray analyses where performed approximately every second week from start of treatment (represents time-point zero) to time of killing (day 13 or 56). Bone lengths (mm) of femur were analyzed in vehicle- and CT (bortezomib) treated animals. Each group included 7-10 mice.
Body weight was measured in both strains of mice every day until day 20 after start of treatment, and once per week thereafter. […] The vertical hatched line in FIGS. 6A and B indicates the last injection on day 11. In light of the growth inhibiting effect on metatarsal bones in vitro and the association of many other cytotoxic drugs, the effect on bone growth was investigated in vivo. Normal 5-week old male C57B and NMRI mice were weigh-matched into pairs to either receive 1 cycle intra peritoneal (i.p) injections of CT (bortezomib) at a clinical relevant dose (1mg/kg of body weight; 2 injections/week, 2 weeks treatment) or saline (vehicle). One group were killed 48 hrs after last injection (day 13) to study the direct effects on bone growth and the growth plate chondrocytes. The second group of animals were followed another 45 days without any treatment and then killed (day 56, 45 days post treatment) to look at the long-term effect and if there was any catch-up growth. […]

[3] = tested on: growth plate chondrocytes; test: TUNEL chondrocyte apoptosis in growth plate sections of C57B and NMRI mice; assay type: in vivo; conditions: bortezomib 1 mg/kg i.p.; day 13 (48 hrs post treatment); each strain, p<0.001 vs vehicle
Description: as §2
Cell death is a well known and desirable phenomenon in the anti-cancer therapy. However, side-effects of the treatment in other tissues and cells is not uncommon. To further investigate the underlying mechanism(s) to the observed growth impairment in vivo we studied apoptosis (by the TUNEL method). Apoptosis was quantified in paraffin embedded growth plate sections of CT (bortezomib) and vehicle treated C57B and NMRI mice sacrificed on day 13 of the study (48 hrs post treatment).

[4] = tested on: human growth plate cartilage; assay type: cell-based; conditions: both, 24 h, 1000 nM
Description: Biopsies from the proximal tibia and distal femur growth plates were collected in 5 pubertal children (3 boys and 2 girls) undergoing epiphyseal surgery for different medical conditions (4 patients with constitutional tall stature and 1 patient with leg length discrepancy). Biopsies were cut into thin slices under microscope and cultured for 24 hrs in the presence of 1000 nM CT (bortezomib). After fixation and sectioning, growth plates were analyzed using the TUNEL assay to determine the levels of chondrocyte apoptosis. […] CT (bortezomib) caused a significant increase in apoptosis (22.2±4.4% TUNEL positive cells vs. 6.3±1.8% in control; **p≦0.01, n=5 patients), which was mainly observed in stem-like and early proliferative chondrocytes. Our confirmation that human growth plate cartilage is also highly sensitive to bortezomib-induced cytotoxicity is of considerable clinical importance.

[5] = tested on: apoptosis inducing factor (AIF) and BAX; test: Western immunoblotting of pro-apoptotic proteins in C5.18 chondrocytic cell line; assay type: cell-based, rat; conditions: 1000 nM bortezomib, 6hrs
Description: Western immunoblotting to study protein expression was performed in the rat C5.18 chondrocytic cell line after treatment with 1000 nM CT (bortezomib) or 100 nM humanin analog HNG (S14G)/1000 nM CT (bortezomib (Btz)) for 6hrs. […] By adding humanin analog HNG (S14G), the up-regulation and activation of the two pro-apoptotic proteins were suppressed. […] As an internal control the house-keeping gene, GAPDH (35 kDa) was used. The experiment was repeated twice.

[6] = tested on: neuroblastoma (SK-N-BE(2)) tumor xenografts; test: Doubling time of tumors in neuroblastoma xenografts; assay type: in vivo, human; conditions: bortezomib 0.8 mg/kg i.v. days 1, 4, 8, 11; p<0.05 vs vehicle
FVB mice = test: Dexa-induced growth retardation in FVB mice (tibia length, nose to anus length); assay type: in vivo; conditions: Dexa 20 μg/mice/day s.c.
Description: Four weeks old female mice FVB strain were obtained from Charles-River, Germany. The mice were kept in animal facility under a 12-h light, 12-h dark schedule with water ad libitum. After an adaptation period, mice were injected with Dexa dissolved in saline (20 μg/mice) subcutaneously in the neck every day for 1 week (short-term). Whereas, HNG (S14G) dissolved in saline (1 μg/mice) was injected intraperitoneally, 45 minutes prior to Dexa injection. The vehicle group received saline only. After one week of treatment/injections, animals were sacrificed and the back legs (femur and tibia) were collected. The skin and muscle from the tibia was removed and final length of tibia was measured by using electronic digital caliper as reported previously (Zaman, Menendez-Benito et al. 2007).
In another study, four weeks old female mice FVB strain (Charles-river, Germany) were injected with Dexa dissolved in saline (20 μg/mice) subcutaneously in the neck every day for four week (long-term). Whereas, HNG (S14G) dissolved in saline (1 μg/mice) was injected intraperitoneally, 45 minutes prior to Dexa injection. The vehicle group received saline only. The total body length (nose to anus) was measured (centimeters, cm) manually (blinded, the cadges were coded on the day of measurment), every week. After 4 weeks of treatment, animals were sacrificed by inhalation of CO2, tissue samples (both left and right leg) were collected for subsequent analysis.
HNG injections were given […] prior to Dexa injections. […] After this, we next asked whether HNG (S14G) has any protective effects on bone growth after long-term treatment with Dexa (FIG. 3A). To investigate this, we treated mice for 4 weeks (group 2) with Dexa (20 μg/mice/day) and HNG (1 μg/mice/day). […] In FIG. 3B, total growth of the animals, nose to anus length (cm, manually) was analyzed in vehicle, Dexa, HNG (S14G) and Dexa/HNG (S14G) treated animals after four weeks of injections. **p<0.01 by 1-way ANOVA analyses, n=9-10/animals/group).

growth plate cartilage = test: Growth plate histology, resting and proliferating chondrocyte zone (R+P); assay type: in vivo, mice; conditions: Dexa alone, four weeks
Description: Four weeks old mice (female, FVB) were injected with Dexa dissolved in saline ([…]) subcutaneously in the neck every day for four week. Whereas, HNG (S14G) dissolved in saline (1 μg/mice) was injected intra-peritoneally, 45 minutes prior to the Dexa injection for four weeks, for details see materials and methods. The femur and tibia bones were dissected out and fixed in 4% formalin for 24 hrs, followed by decalcification in 10% EDTA and embedded in paraffin blocks. Five-micrometer-thick sections were prepared from these paraffin blocks. The sections were prepared from the tibial growth plate and stained with Van Gieson. Digital images of stained sections were collected using a Nikon Eclipse E800 microscope (Nikon Corp., Tokyo, Japan) equipped with an Olympus DP70 digital camera (Olympus Sverige AB, Solna, Sweden).
Since a positive effect of HNG (S14G) on bone growth was identified, different zones of chondrocytes were analyzed (resting, proliferative and hypertrophic) in growth plate cartilage, to identify visible changes in these zones. […] These micropgraphas also explain the longitudinal bone growth promoting effects by HNG (S14G) alone or in combination with Dexa.

male Wistar rats = conditions: cited from earlier work

CC(C)C[C@H](NC(=O)[C@H](CC(C)C)NC(=O)[C@H](CC(C)C)NC(=O)OCc1ccccc1)B(O)O [MG262]
effect on growth plate and growth (growth plate): permanent growth retardation and chondrocyte cell death

CC(C)C[C@H](NC(=O)[C@H](Cc1ccccc1)NC(=O)c1cnccn1)B(O)O [CT (bortezomib), bortezomib]
longitudinal bone growth ([1]; bortezomib 50 nM or higher, from day 2 throughout 12 days, p<0.001 vs control): Significant growth suppression
longitudinal bone growth ([1]; bortezomib 1000 nM for only 24 hrs, then control medium up to 12 days): permanent growth arrest
longitudinal bone growth ([1]; bortezomib, all concentrations tested (25-100 nM)): completley abolished growth
chondrocyte apoptosis (TUNEL) [2]: significant dose-dependent increase in chondrocyte apoptosis
body weight (C57B and NMRI mice; C57BL mice, bortezomib 1 mg/kg i.p. days 1, 4, 8, 11, vs vehicle): no difference in body weight
body weight (C57B and NMRI mice; NMRI mice, bortezomib 1 mg/kg i.p. days 1, 4, 8, 11, day 36 until day 56, vs vehicle): significant difference in body weight
bone length (femur, X-ray) (C57B and NMRI mice; after 45 day follow-up (day 56), p<0.001): still significantly shorter
bone length (femur, X-ray) (C57B and NMRI mice; day 13, both strains, p<0.001 vs vehicle): significantly shorter
chondrocyte apoptosis (TUNEL) [3]: significant induction of chondrocyte apoptosis
TUNEL positive cells [4]: 22.2±4.4%
expression of pro-apoptotic proteins AIF and BAX [5]: induce up-regulation and activation
tumor doubling time [6]: significant reduction in tumor doubling time
effect on growth plate and growth (growth plate): permanent growth retardation and chondrocyte cell death

Colivelin
protection against Dexa-induced bone growth retardation ([1]; colivelin 100 μM combined with Dexa 1 μM): some protective effect against Dexa-induced bone growth retardation
longitudinal growth ([1]; colivelin alone, cultured for 12 days): some stimulatory effect on longitudinal growth

C[C@@H]1C[C@H]2[C@@H]3CCC4=CC(=O)C=C[C@]4(C)[C@@]3(F)[C@@H](O)C[C@]2(C)[C@@]1(O)C(=O)CO [Dexa, Dexamethasone, reference compound]
longitudinal bone growth ([1]; Dexa 1 μM alone): induced growth retardation
growth (tibia length) (FVB mice; 1 week): significantly induced growth retardation
growth (nose to anus length) (FVB mice; 4 weeks, vs vehicle): significantly growth retarded
size of resting and proliferating chondrocyte zone (R+P) (growth plate cartilage): appears smaller

COc1cccc2c1C(=O)c1c(O)c3c(c(O)c1C2=O)C[C@@](O)(C(=O)CO)C[C@@H]3O[C@H]1C[C@H](N)[C@H](O)[C@H](C)O1 [doxorubicin]
reduction in tibia length (male Wistar rats): 18%

CN(Cc1cnc2nc(N)nc(N)c2n1)c1ccc(C(=O)N[C@@H](CCC(=O)O)C(=O)O)cc1 [methotrexate]
reduction in tibia length (male Wistar rats): 5%
